In DBAASP:
In brackets after ≈: the same amount, converted by molar mass.

How the values were obtained:
Test in all cases: ≥ marks a high value that may be exact or a test limit, other limits are often not marked, values filed in µg/mL are converted to µM
[1] = tested on: Escherichia coli ATCC 25922
[2] = tested on: Acinetobacter baumannii
[3] = tested on: Staphylococcus aureus MR
[4] = tested on: Staphylococcus aureus NCTC 10442
[5] = tested on: Staphylococcus aureus
[6] = tested on: Escherichia coli
[7] = tested on: Acinetobacter baumannii ATCC BAA-747
[8] = tested on: Pseudomonas aeruginosa ATCC 27853
[9] = tested on: Klebsiella pneumoniae ATCC 700603
[10] = tested on: Klebsiella pneumoniae
[11] = tested on: Listeria monocytogenes DSM 20600
[12] = tested on: Escherichia coli D31
[13] = tested on: Listeria grayi DSM 20601
[14] = tested on: Listeria fleischmannii DSM 24998
[15] = tested on: Micrococcus luteus DSM 20030
[16] = tested on: Staphylococcus aureus P1381
[17] = tested on: Pseudomonas aeruginosa AB93066
[18] = tested on: Staphylococcus aureus ATCC 6538
[19] = tested on: Staphylococcus aureus ATCC 25923
[20] = tested on: Staphylococcus aureus AB94004
[21] = tested on: Escherichia coli AB94012
[22] = tested on: Staphylococcus aureus P1374
[23] = tested on: Pseudomonas aeruginosa ATCC 9027
[24] = tested on: Micrococcus luteus CCM 144
[25] = tested on: Bacillus subtilis 168
[26] = tested on: Pseudomonas aeruginosa
[27] = tested on: Escherichia coli B
[28] = tested on: Candida albicans F7-39/IDE99
[29] = tested on: Bacillus atrophaeus BM013
[30] = tested on: Salmonella enterica subsp. enterica serovar Enteritidis 706 RIVM
[31] = tested on: Bacillus licheniformis ATCC 21424
[32] = tested on: Staphylococcus aureus WKZ-2
[33] = tested on: Pseudomonas aeruginosa PAO1
[34] = tested on: Staphylococcus aureus ATCC 29213
[35] = tested on: Fusarium graminearum PH-1

For `CC[C@H](C)[C@H](NC(=O)[C@H](CCSC)NC(=O)[C@H](C)NC(=O)[C@@H]1CCCN1C(=O)[C@@H](NC(=O)[C@@H](NC(=O)[C@H](CCCCN)NC(=O)[C@@H](NC(=O)[C@H](CC(C)C)NC(=O)CNC(=O)CNC(=O)[C@H](CC(C)C)NC(=O)[C@@H](N)Cc1ccccc1)[C@@H](C)CC)[C@@H](C)CC)C(C)C)C(=O)N[C@@H](CS)C(=O)N[C@@H](C)C(=O)N[C@H](C(=O)N[C@H](C(=O)N[C@@H](CCCCN)C(=O)N[C@@H](CCCCN)C(=O)N[C@@H](CS)C(=O)N[C@@H](Cc1cnc[nH]1)C(=O)N[C@@H](Cc1cnc[nH]1)C(=O)N[C@@H](Cc1cnc[nH]1)C(=O)N[C@@H](Cc1cnc[nH]1)C(=O)N[C@@H](Cc1cnc[nH]1)C(=O)N[C@@H](Cc1cnc[nH]1)C(=O)O)[C@@H](C)O)C(C)C` [FLGGLIKIVPAMICAVTKKCHHHHHH], the MIC [1] was 10.9 µM (≈ 32 µg/mL), the MIC [2] was 10.9 µM (≈ 32 µg/mL) and the MIC [3] was 2.73 µM (≈ 8 µg/mL). The MIC [4] was 5.46 µM (≈ 16 µg/mL), the MIC [5] was 5.46 µM (≈ 16 µg/mL) and the MIC [6] was 7.73 µM (≈ 22.6 µg/mL). For the same compound, the MIC [7] was 21.9 µM (≈ 64 µg/mL), the MIC [8] was 43.7 µM (≈ 128 µg/mL) and the MIC [9] was 43.7 µM (≈ 128 µg/mL). The MIC [10] was 21.9 µM (≈ 64 µg/mL).

`CC[C@H](C)[C@H](NC(=O)[C@H](C)NC(=O)[C@H](CO)NC(=O)[C@H](CCCCN)NC(=O)[C@@H]1CCCN1C(=O)[C@@H](NC(=O)[C@H](CCCCN)NC(=O)[C@H](CC(C)C)NC(=O)[C@H](CO)NC(=O)[C@H](CC(C)C)NC(=O)[C@H](CCCCN)NC(=O)[C@H](CC(C)C)NC(=O)[C@H](Cc1ccccc1)NC(=O)[C@@H]1CCCN1C(=O)[C@@H](N)Cc1ccccc1)[C@@H](C)CC)C(=O)N[C@@H](CCCCN)C(=O)N[C@@H](CO)C(=O)N[C@@H](C)C(=O)N[C@H](C(=O)N[C@@H](CCCCN)C(=O)N[C@@H](CCCN=C(N)N)C(=O)N[C@@H](CC(C)C)C(N)=O)[C@@H](C)CC` [FPFLKLSLKIPKSAIKSAIKRL] showed an MIC [11] of 30 µM (≈ 74.9 µg/mL), an MIC [12] of 8 µM (≈ 20 µg/mL) and an MIC [13] of 8 µM (≈ 20 µg/mL). The MIC [14] was 30 µM (≈ 74.9 µg/mL) and the MIC [15] was 0.25 µM (≈ 0.625 µg/mL).

With `CC[C@H](C)[C@H](NC(=O)CN)C(=O)N[C@@H](CC(C)C)C(=O)NCC(=O)N[C@@H](CCCCN)C(=O)N[C@@H](CC(C)C)C(=O)N[C@@H](Cc1c[nH]c2ccccc12)C(=O)N[C@@H](CCCCN)C(=O)NCC(=O)N[C@H](C(=O)N[C@@H](CCCCN)C(=O)N[C@@H](CO)C(=O)N[C@H](C(=O)N[C@@H](Cc1ccccc1)C(N)=O)[C@@H](C)CC)C(C)C` [GILGKLWKGVKSIF] the MIC [1] was 64.7 µM (≈ 99.9 µg/mL), the MIC [16] was 4.04 µM (≈ 6.25 µg/mL) and the MIC [17] was ≥ 32.3 µM. For the same compound, the MIC [18] was 4.04 µM (≈ 6.25 µg/mL), the MIC [19] was 8.09 µM (≈ 12.5 µg/mL) and the MIC [20] was 4.04 µM (≈ 6.25 µg/mL). The MIC [21] was 16.2 µM (≈ 25 µg/mL), the MIC [22] was 4.04 µM (≈ 6.25 µg/mL) and the MIC [23] was 16.2 µM (≈ 25 µg/mL).

`CC[C@H](C)[C@H](NC(=O)[C@H](CC(C)C)NC(=O)[C@H](CCCCN)NC(=O)[C@@H](NC(=O)[C@@H](NC(=O)[C@H](Cc1cnc[nH]1)NC(=O)[C@@H]1CCCN1C(=O)[C@H](CC(C)C)NC(=O)[C@@H](NC(=O)[C@H](CCCCN)NC(=O)[C@H](C)NC(=O)[C@H](CC(C)C)NC(=O)[C@H](CCCCN)NC(=O)[C@H](CO)NC(=O)[C@H](C)NC(=O)[C@H](CCSC)NC(=O)CN)C(C)C)C(C)C)C(C)C)C(=O)N[C@@H](CCCCN)C(=O)O` [GMASKLAKVLPHVVKLIK] was tested, and the MIC [24] was 1.4 µM (≈ 2.71 µg/mL), the MIC [25] was 3.1 µM (≈ 5.99 µg/mL) and the MIC [26] was 100 µM (≈ 193 µg/mL). For the same compound, the MIC [5] was 35 µM (≈ 67.6 µg/mL), the MIC [27] was 2.9 µM (≈ 5.6 µg/mL) and the MIC [28] was ≥ 56.3 µM.

For `CC[C@H](C)[C@H](NC(=O)[C@H](Cc1ccccc1)NC(=O)[C@H](CCCCN)NC(=O)[C@H](CC(C)C)NC(=O)[C@H](CCCCN)NC(=O)CNC(=O)[C@@H]1CCCN1C(=O)[C@H](CCCCN)NC(=O)[C@H](CC(C)C)NC(=O)[C@H](C)NC(=O)[C@@H](NC(=O)[C@H](Cc1cnc[nH]1)NC(=O)[C@@H]1CCCN1)C(C)C)C(=O)N[C@H](C(=O)N1CCC[C@H]1C(=O)N[C@@H](CO)C(=O)N1CCC[C@H]1C(=O)N[C@@H](CCCCN)C(=O)N[C@@H](CCCN=C(N)N)C(=O)N1CCC[C@H]1C(=O)N[C@H](C(=O)N[C@@H](CCCCN)C(=O)N[C@@H](CC(C)C)C(=O)N[C@@H](CC(C)C)C(=O)N[C@@H](CO)C(=O)NCC(=O)O)C(C)C)[C@@H](C)CC` [PHVALKPGKLKFIIPSPKRPVKLLSG], the MIC [1] was 10 µM (≈ 28.2 µg/mL), the MIC [29] was 2.5 µM (≈ 7.05 µg/mL) and the MIC [30] was ≥ 40 µM. For the same compound, the MIC [31] was 1.25 µM (≈ 3.53 µg/mL), the MIC [32] was ≥ 40 µM and the MIC [8] was > 40 µM. For the same compound, the MIC [33] was 20 µM (≈ 56.4 µg/mL) and the MIC [34] was > 40 µM.

In the case of `NC(N)=NCCC[C@H](NC(=O)[C@H](Cc1ccccc1)NC(=O)[C@H](CC(=O)O)NC(=O)[C@H](CC(=O)O)NC(=O)[C@@H](N)CCCN=C(N)N)C(=O)O` [RDDFR], the MIC [35] is reported as ≥ 96 µM.
